# Test results as given in PubChem BioAssay AID1406 (The Scripps Research Institute Molecular Screening Center, 2008).
# Active and inactive are the calls of the source.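 How the source made its calls: active means STAT1 reporter activators whose half-maximal activating concentration EC50 is 10 µM or lower; inactive means EC50 above 10 µM or no activation.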
# System: NIH 3T3 STAT1 luciferase reporter, luminescence
# Assay: STAT1 reporter activators, potency curves, dose response, counter-screen for STAT3 activator project, cell-based, NIH 3T3, luciferase luminescence (AID 1406)
# Settings: not given
row,SMILES,EC50
1,CC1=NN(c2ccccc2)C(=O)/C1=C/c1c(O)[nH]c(=O)[nH]c1=O,> 55.7 µM (inactive)
2,c1ccc2c(CNC3CCCCCC3)c[nH]c2c1,> 55.7 µM (inactive)

# Same assay, conditions: cells stimulated with IFN-gamma at EC80
row,SMILES,EC50
1,CC(C)CC(=O)NC(=S)Nc1nc(-c2ccccc2)cs1,> 55.7 µM (inactive)
2,CC(=O)Nc1c(Cl)n(C(C)=O)c2ccccc12,> 55.7 µM (inactive)
3,Cc1noc(/C=C/N(C)C)c1S(=O)(=O)N1CCc2ccccc21,> 55.7 µM (inactive)
4,O=C(Nc1ccccc1O)c1csc2c1CCCC2,> 55.7 µM (inactive)
5,Cn1nc(-c2ccc(Cl)cc2)c2cc(C(=O)NCCCN3CCOCC3)sc21,> 55.7 µM (inactive)
6,CCN1CCN(C(=O)c2cc3c(-c4ccc(Cl)cc4)nn(C)c3s2)CC1,> 55.7 µM (inactive)
7,O=C(CN1CCNCC1)Nc1ccc(Oc2ccccc2)cc1,> 55.7 µM (inactive)
8,COc1ccccc1C(=O)NNC(=O)c1ccc(NC(=O)C(C)C)cc1,> 55.7 µM (inactive)
9,CN1CCN(C(=O)CNc2ccc(C(F)(F)F)cc2[N+](=O)[O-])CC1,> 55.7 µM (inactive)
10,COCCCNc1nc2c(-c3cccc(C(F)(F)F)c3)nnn2c2ccccc12,> 55.7 µM (inactive)
11,COC(=O)c1sccc1NC(=O)c1cc2c(s1)CCCC2,> 55.7 µM (inactive)
12,Cc1cc(C)n(-c2nnc3n2N=C(c2c[nH]c4ccccc24)CS3)n1,> 55.7 µM (inactive)
13,CCc1cc2c(NCCC(=O)O)nc(C)nc2s1,> 55.7 µM (inactive)
14,CCC(CC)NC(=O)Cc1ccccc1[N+](=O)[O-],> 55.7 µM (inactive)
15,COc1ccc(CN2CCN(S(=O)(=O)c3ccc(C)cc3)CC2)cc1Br,> 55.7 µM (inactive)
16,COC(=O)c1sccc1NC(=O)c1ccc(Br)s1,> 55.7 µM (inactive)
17,CC(=O)n1cc(Nc2ccc([N+](=O)[O-])cc2)c2ccccc21,> 55.7 µM (inactive)
18,O=C(COc1ccccc1Cl)Nc1cc(Cl)ccc1O,> 55.7 µM (inactive)
19,COc1ccc(C2c3[nH]c4ccccc4c3CCN2C(=O)c2cc3ncccn3n2)c(F)c1 (centres undefined),> 55.7 µM (inactive)
20,CCn1c(C(=O)Nc2ccsc2C(=O)OC)cc2sc(Cl)cc21,> 55.7 µM (inactive)
21,O=C(O)C1CC=CCC1C(=O)Nc1ccc(S(=O)(=O)N2CCCc3ccccc32)cc1 (centres undefined),> 55.7 µM (inactive)
22,CC(=O)NCCC(=O)N1CCc2c([nH]c3ccccc23)C1c1cccc(C)c1 (centres undefined),> 55.7 µM (inactive)
23,CC(=O)NCCC(=O)N1CCc2c([nH]c3ccccc23)C1c1cccc(Cl)c1 (centres undefined),> 55.7 µM (inactive)
24,COC(=O)NNC(=O)c1ccccc1OC,> 55.7 µM (inactive)
25,Cn1nc(-c2ccc(Cl)cc2)c2cc(C(=O)NCC3CCCO3)sc21 (centres undefined),> 55.7 µM (inactive)
26,CCCc1cc(C(=O)Nc2cc(OC)c(Cl)cc2OC)no1,> 55.7 µM (inactive)

row,SMILES,EC50
1,O=C(CCN1CCOCC1)N1CCc2c([nH]c3ccccc23)C1c1cccc(Cl)c1 (centres undefined),> 55.7 µM (inactive)
2,Cc1nnc(NC(=O)c2oc3c(ccc4ccccc43)c2C)s1,> 55.7 µM (inactive)
3,Cc1nc(/N=C(\N)Nc2ccccc2)nc2ccccc12,> 55.7 µM (inactive)
4,Cc1nc2ccccc2cc1O,> 55.7 µM (inactive)
5,COc1ccc(C2c3[nH]c4ccccc4c3CCN2C(=O)c2ccc(=O)n(C)n2)c(F)c1 (centres undefined),> 55.7 µM (inactive)
6,CCCNC(=O)Cn1c2ccccc2c2nc(=O)cc(C)n21,> 55.7 µM (inactive)
7,Cc1nc2c(n1C1CCCCC1)C(=O)c1ccccc1C2=O,> 55.7 µM (inactive)
8,COc1ccc(Cl)cc1NC(=O)c1oc(C)nc1C,> 55.7 µM (inactive)
9,COC(=O)C(NC=O)C(O)(Cc1ccccc1)C(F)(F)F (centres undefined),> 55.7 µM (inactive)
10,Cc1cccc2c1NC(=O)/C2=C\C(=O)c1cccs1,> 55.7 µM (inactive)
11,COc1ccc(-c2nnc(Nc3nc4c(OC)cccc4s3)o2)cc1,> 55.7 µM (inactive)
12,CCC(=O)NCCSc1c[nH]c2ccccc12,> 55.7 µM (inactive)
13,NNc1ncnc2sc3c(c12)CCC3,> 55.7 µM (inactive)
14,CCOc1ccccc1CN1CCN(Cc2cc3ccccc3[nH]2)CC1CCO (centres undefined),> 55.7 µM (inactive)
15,CC1=C(C)C(=O)C(N2CCOCC2)=CC1=O,> 55.7 µM (inactive)
16,COc1ccc(Br)cc1C(=O)Nc1cccc(C)c1,> 55.7 µM (inactive)
17,CC1Cc2ccccc2N1Cc1cc(=O)n2ccsc2n1 (centres undefined),> 55.7 µM (inactive)
18,NC(=O)CSc1c[nH]c2ccccc12,> 55.7 µM (inactive)
19,CCOC(=O)c1sc(NCc2ccco2)c(-c2nc3ccccc3s2)c1N,> 55.7 µM (inactive)
20,CCCN(CCC)C(=O)Cn1c2ccccc2c2nc(=O)cc(C)n21,> 55.7 µM (inactive)
21,COCCCNC(=O)c1cc2c(-c3ccc(Cl)cc3)nn(C)c2s1,> 55.7 µM (inactive)
22,Nc1ccccc1Sc1nc2ccccc2[nH]1,> 55.7 µM (inactive)
23,COc1ccccc1C(=O)Nc1cc(Cl)ccc1O,> 55.7 µM (inactive)
24,Cn1c(CNc2ccccc2O)nc2ccccc21,> 55.7 µM (inactive)
25,Cc1[nH]n(-c2ccccc2)c(=O)c1/C=C1/C=c2ccccc2=N1,> 55.7 µM (inactive)
26,CCN(CC)S(=O)(=O)c1ccc(-c2nnc3sc4cccc(C)c4n23)cc1,> 55.7 µM (inactive)

row,SMILES,EC50
1,O=C(c1cc[n+]([O-])cc1)N1CCc2c([nH]c3ccccc23)C1c1ccccc1Cl (centres undefined),> 55.7 µM (inactive)
2,COc1ccc(NC(=O)N2CCn3c2nc2ccccc23)cc1,> 55.7 µM (inactive)
3,CN(C)C(CN1C(=O)C2CC=CCC2C1=O)c1cn(C)c2ccccc12 (centres undefined),> 55.7 µM (inactive)
4,COc1ccc(C)cc1NC(=O)c1[nH]c(C)c(C(C)=O)c1C,> 55.7 µM (inactive)
5,O=C(O)C(Cc1c[nH]c2ccccc12)N1Cc2ccccc2C1=O (centres undefined),> 55.7 µM (inactive)
6,COC(=O)c1n[nH]c2ccccc12,> 55.7 µM (inactive)
7,Cn1nc(-c2ccc(Cl)cc2)c2cc(C(=O)NCCN3CCOCC3)sc21,> 55.7 µM (inactive)
8,CCOc1ccc(CN2CCN(Cc3cc4ccccc4[nH]3)CC2CCO)cc1 (centres undefined),> 55.7 µM (inactive)
9,COc1ccc(Cl)cc1-c1nc(-c2ccc(Br)o2)no1,> 55.7 µM (inactive)
10,Cc1c(C#N)c2ccccc2n1CC(=O)O,> 55.7 µM (inactive)
11,O=C(Cc1cccs1)Nc1ccccn1,> 55.7 µM (inactive)
12,O=C(CCCSc1nc2ccccc2s1)NCc1ccco1,> 55.7 µM (inactive)
13,COc1ccccc1C(=O)NNC(=S)Nc1ccccc1,> 55.7 µM (inactive)
14,CCOc1ccccc1C1CC(c2cccs2)=NN1S(C)(=O)=O (centres undefined),> 55.7 µM (inactive)
15,COc1ccc(-c2nc3scc(-c4ccccc4)n3n2)cc1,> 55.7 µM (inactive)
16,O=C(C1CCCN(S(=O)(=O)c2cccc3cccnc23)C1)N1CCc2ccccc21 (centres undefined),> 55.7 µM (inactive)
17,CN(C)C(=O)COC(=O)/C=C/c1ccccc1[N+](=O)[O-],> 55.7 µM (inactive)
18,Cc1ccc(CC(=O)Nc2nc3c(s2)CCCC3)cc1,> 55.7 µM (inactive)
19,COCCSc1ccccc1C(=O)NCCc1ccccc1,> 55.7 µM (inactive)
20,CCOc1cc(-c2ccc(N)c(OCC)c2)ccc1N,> 55.7 µM (inactive)
21,N#Cc1cn(CC(=O)O)c2ccccc12,> 55.7 µM (inactive)
22,Cc1nonc1CC(=O)N1CCc2c([nH]c3ccccc23)C1c1ccccc1F (centres undefined),> 55.7 µM (inactive)
23,O=C(Cc1c[nH]c2ccccc12)Nc1nc2ccccc2[nH]1,> 55.7 µM (inactive)
24,Cc1ccccc1C1c2[nH]c3ccccc3c2CCN1C(=O)c1ccc(=O)n(C)n1 (centres undefined),> 55.7 µM (inactive)
25,CCCc1nnc(N2C(=O)c3cccc4cccc(c34)C2=O)s1,> 55.7 µM (inactive)
26,COc1ccccc1-c1nnc(SCC(=O)NC2CCCCC2)o1,> 55.7 µM (inactive)

row,SMILES,EC50
1,COc1ccc(S(=O)(=O)Nc2nc3ccccc3s2)cc1OC,> 55.7 µM (inactive)
2,COc1cc(NC(=O)c2cc(C(C)C)on2)c(OC)cc1Cl,> 55.7 µM (inactive)
3,CCOc1ccccc1-c1n[nH]c(=S)o1,> 55.7 µM (inactive)
4,COc1cc(NC(=O)c2cc(-c3ccco3)on2)c(OC)cc1Cl,> 55.7 µM (inactive)
5,CN1C(=O)c2ccccc2C(C(=O)NCCCN2CCCC2=O)C1c1c[nH]c2ccccc12 (centres undefined),> 55.7 µM (inactive)
6,CCOC(=O)C1(CC2CCCCO2)CCN(Cc2cc3ccccc3[nH]2)CC1 (centres undefined),> 55.7 µM (inactive)
7,COc1ccc(Cl)cc1NC(=O)Nc1ccc(Br)cn1,> 55.7 µM (inactive)
8,CN1CCN(CCCNC(=O)c2cc3c(-c4ccc(Cl)cc4)nn(C)c3s2)CC1,> 55.7 µM (inactive)
9,O=c1c2ccccc2ncn1Cc1ccco1,> 55.7 µM (inactive)
10,O=C(Cc1c[nH]c2ccccc12)Nc1nnc(C2CC2)s1,> 55.7 µM (inactive)
11,Nc1nnc(Cc2c[nH]c3ccccc23)s1,> 55.7 µM (inactive)
12,c1ccc2c(c1)CCCN2c1nc2ccccc2n2cnnc12,> 55.7 µM (inactive)
13,CC(=O)N1N=C(c2ccccc2O)OC1(C)CC(=O)Nc1ccccc1 (centres undefined),> 55.7 µM (inactive)
14,CN1C(=O)/C(=C\c2cc(Br)cs2)c2ccccc21,> 55.7 µM (inactive)
15,Cn1nc(-c2ccc(Cl)cc2)c2cc(C(=O)NCCCN3CCCC3)sc21,21.6 µM (inactive)
16,COc1ccccc1NC(=O)c1[nH]c(C)c(C(C)=O)c1C,> 55.7 µM (inactive)
17,O=C(Cc1cnc2ncnn2c1)N1CCc2c([nH]c3ccccc23)C1c1ccccc1F (centres undefined),> 55.7 µM (inactive)
18,COc1cccc2sc(Nc3nnc(-c4ccc(F)cc4)o3)nc12,> 55.7 µM (inactive)
19,Cc1c(C(=O)NCc2cccnc2)oc2ccc(S(=O)(=O)N3CC(C)CC(C)C3)cc12 (centres undefined),> 55.7 µM (inactive)
20,Cc1cccc(NC(=O)c2cc([N+](=O)[O-])ccc2Cl)c1O,> 55.7 µM (inactive)
21,Nc1nc(-c2ccc(Cl)cc2)nn1C(=O)c1cccs1,> 55.7 µM (inactive)
22,CC1CCN(C(=O)Cn2c(=O)n(CCc3ccccc3)c(=O)c3ccccc32)CC1,> 55.7 µM (inactive)
23,COCc1cc(=O)n2c(-c3ccccc3OC)n[nH]c2n1,> 55.7 µM (inactive)
24,CCC(C(=O)Nc1ccccc1OC)n1c(C(=O)OC)cc2ccsc21 (centres undefined),> 55.7 µM (inactive)
